One test concerns alpha-glucosidase. Description: Kinetics of alpha-glucosidase inhibition (Lineweaver-Burk plot). It is filed as biochemical, Saccharomyces cerevisiae. The following applies: Lineweaver-Burk plots, two inhibitor concentrations, various PNPG concentrations. The procedure: To determine the mode of inhibition of the compounds, fixed amounts of alpha-glucosidase were incubated with increasing concentrations of PNPG at 37 °C for 15 min, both in the absence and presence of inhibitors. Subsequently, the reactions were stopped, the sample absorbances were measured, and then the values obtained were analyzed using the Lineweaver–Burk plot. For this assay, three evaluations were performed, one in the absence of the inhibitor and the other using different concentrations of the inhibitors (at concentrations equivalent to their respective IC50 values). Again, the evaluations of each compound were performed in triplicate.

The next test concerns the target alpha-glucosidase enzyme. In words: Inhibition of alpha-glucosidase assay (PNPG substrate, 96-well plate). It is filed as biochemical. The following applies: enzyme from Saccharomyces cerevisiae. The procedure:
The assay was performed in 96-well plates. Both test samples and the positive control were dissolved in DMSO or MeOH. Test samples (20 μL) were added to their respective wells containing 150 μL of the enzyme (from Saccharomyces cerevisiae purchased from Sigma-Aldrich Co., St. Louis, MO, USA) solution (32 mU/mL), followed by incubation at 37 °C for 7 min. Subsequently, 150 μL of PNPG (4-Nitrophenyl-[…]-D-glucopyranoside, 2 mM) was introduced into each well, and the plate was further incubated at 37 °C for 20 min. The resulting absorbance, corresponding to the p-nitrophenol released during the reaction, was measured at 400 nm. All assays were performed in duplicate. The activity of the samples was calculated as a percentage relative to the control (DMSO or MeOH, instead of the sample solution), using the following equation: %Inhibition=(∆ Acontrol−∆ Asample)/∆ Acontrol×100%
ΔAcontrol: absorbance of the control—absorbance of the blank
ΔAsample: absorbance of the sample—absorbance of the sample blank.
The concentration necessary to achieve a 50% inhibition of enzyme activity (IC50) was calculated through regression analysis. Data obtained from alpha-glucosidase inhibition assays were expressed as the mean ± standard deviation (SD) of three replicates. Statistical analysis was performed using Excel 2019 (Microsoft, Seattle, WA, USA). Finally, a one-way analysis of variance (ANOVA) followed by Tukey’s post-test was used to evaluate possible differences between the means of each data. To determine significant differences, statistical significance was defined as p-values ≤ 0.05 [25].

Structures are written as SMILES.

In general, IC50 refers to the concentration needed to halve the response being measured.

As for `C[C@H]1O[C@H](O[C@H]2[C@H](O)[C@@H](O)[C@@H](O[C@H]3[C@H](O)[C@@H](O)C(O)O[C@@H]3CO)O[C@@H]2CO)[C@H](O)[C@@H](O)[C@@H]1N[C@H]1C=C(CO)[C@@H](O)[C@H](O)[C@H]1O` (some centres unmarked) [acarbose, reference compound], in the test with alpha-glucosidase, the “mode of inhibition of alpha-glucosidase” value is on record as “competitive inhibition”.
As for `CC[C@H](CC[C@@H](C)[C@H]1CC[C@H]2[C@@H]3CC=C4C[C@@H](O)CC[C@]4(C)[C@H]3CC[C@]12C)C(C)C` [Compound 6, sitosterol], the IC50 on alpha-glucosidase enzyme was 18700 nM. In the test on alpha-glucosidase, the “mode of inhibition of alpha-glucosidase” value is reported as “reversible competitive inhibition”.
At alpha-glucosidase enzyme, `C=C(C)[C@@H]1CC[C@]2(C)CC[C@]3(C)[C@H](CC[C@@H]4[C@@]5(C)CC[C@H](O)C(C)(C)[C@@H]5CC[C@]43C)[C@@H]12` [Compound 2, lupeol] yielded an IC50 of 1050 nM.
At alpha-glucosidase enzyme, `C=C(C)[C@@H]1CC[C@]2(C)CC[C@]3(C)[C@H](CC[C@@H]4[C@@]5(C)CCC(=O)C(C)(C)[C@@H]5CC[C@]43C)[C@@H]12` [Compound 1, lupenone] showed a 50% inhibitory concentration (IC50) of 720 nM. Further, the “mode of inhibition of alpha-glucosidase” value in the test on alpha-glucosidase is on record as “reversible competitive inhibition”.
As for `CCCCCCCCCCCCCCCC(=O)O` [Compound 5, palmitic acid], the 50% inhibitory concentration (IC50) against alpha-glucosidase enzyme worked out at 240000 nM.
Turning to `C[C@H]1[C@H](C)CC[C@]2(C)CC[C@]3(C)C(=CC[C@@H]4[C@@]5(C)CC[C@H](O)C(C)(C)[C@@H]5CC[C@]43C)[C@H]12` [Compound 3, α-amyrin], the half-inhibitory concentration (IC50) against alpha-glucosidase enzyme was 2130 nM.
`CC[C@H](/C=C/[C@@H](C)[C@H]1CC[C@H]2[C@@H]3CC=C4C[C@@H](O)CC[C@]4(C)[C@H]3CC[C@]12C)C(C)C` [Compound 7, stigmasterol] came in with an IC50 at alpha-glucosidase enzyme of 163000 nM. The “mode of inhibition of alpha-glucosidase” value with alpha-glucosidase is reported as “reversible competitive inhibition”.
On alpha-glucosidase enzyme, `CC1(C)CC[C@]2(C)CC[C@]3(C)C(=CC[C@@H]4[C@@]5(C)CC[C@H](O)C(C)(C)[C@@H]5CC[C@]43C)[C@@H]2C1` [Compound 4, β-amyrin] displayed an IC50 of 1220 nM. That is a single-digit micromolar value.

For the origin of these results see article PMC11279897, “Isolation of Alpha-Glucosidase Inhibitors from the Panamanian Mangrove Plant Mora oleifera (Triana ex Hemsl.) Ducke” (Pharmaceuticals, 2024).
